This assay concerns the target CDK2 (human) (UniProt P24941). Put plainly: Enzyme Assay. The note with it: concentration not given here.
As a reminder, the inhibition is the drop in the measured response relative to a control, in per cent. For `Nc1nc(NC2CCN(C(=O)c3ccc(F)c(F)c3)CC2)sc1C(=O)c1c(F)cccc1F`, the inhibition is 56%. For `COC(=O)CC(=O)N1CCC(Nc2nc(N)c(C(=O)c3c(F)cccc3F)s2)CC1` the value was -24%; for `CCCSc1ncccc1C(=O)N1CCC(Nc2nc(N)c(C(=O)c3c(F)cccc3F)s2)CC1`, 44%.

With `CC(C)CCC(=O)N1CCC(Nc2nc(N)c(C(=O)c3c(F)cccc3F)s2)CC1`, the inhibition came to 27%. For `CC(C)C(C)C(=O)N1CCC(Nc2nc(N)c(C(=O)c3c(F)cccc3F)s2)CC1` (stereo not given) the value was 35%; for `C[C@H](O)C(=O)N1CCC(Nc2nc(N)c(C(=O)c3c(F)cccc3F)s2)CC1`, 67%.

`CCCC/C=C/C(=O)N1CCC(Nc2nc(N)c(C(=O)c3c(F)cccc3F)s2)CC1`: the inhibition amounted to 27%.

For `Cc1c(S(=O)(=O)N2CCC(Nc3nc(N)c(C(=O)c4c(F)cccc4F)s3)CC2)sc2ccc(Cl)cc12`, the inhibition was -2%.

Consider `CCCN(CCC)[C@@H](C)C(=O)N1CCC(Nc2nc(N)c(C(=O)c3c(F)cccc3F)s2)CC1`, for which the inhibition was determined as 6%. In the case of `Cc1ccc(OCC(=O)N2CCC(Nc3nc(N)c(C(=O)c4c(F)cccc4F)s3)CC2)cc1C` it was 52%. For `C=CCC(C)(C)C(=O)N1CCC(Nc2nc(N)c(C(=O)c3c(F)cccc3F)s2)CC1` the value was 14%; for `Nc1nc(NC2CCN(C(=O)/C(F)=C/c3ccccc3)CC2)sc1C(=O)c1c(F)cccc1F`, 64%. For `CC(=O)O[C@H](C(=O)N1CCC(Nc2nc(N)c(C(=O)c3c(F)cccc3F)s2)CC1)c1ccccc1`, the inhibition turned out to be 41%. With `CN(C)c1ccccc1C(=O)N1CCC(Nc2nc(N)c(C(=O)c3c(F)cccc3F)s2)CC1`, the inhibition came out at 6%. In the case of `Nc1nc(NC2CCN(C(=O)c3ccc(C(F)(F)F)cc3C(F)(F)F)CC2)sc1C(=O)c1c(F)cccc1F` it was 0%; in that of `COc1cccc(OCC(=O)N2CCC(Nc3nc(N)c(C(=O)c4c(F)cccc4F)s3)CC2)c1`, 61%; in that of `Nc1nc(NC2CCN(C(=O)C3CCC(=O)CC3)CC2)sc1C(=O)c1c(F)cccc1F`, 48%.

Consider `CCOC(=O)CCC(=O)N1CCC(Nc2nc(N)c(C(=O)c3c(F)cccc3F)s2)CC1`, for which the inhibition is 54%. In the case of `COc1ccc(C2(C(=O)N3CCC(Nc4nc(N)c(C(=O)c5c(F)cccc5F)s4)CC3)CC2)cc1` it was 37%; in that of `CSc1ccccc1C(=O)N1CCC(Nc2nc(N)c(C(=O)c3c(F)cccc3F)s2)CC1`, 40%; in that of `CCOCC(=O)N1CCC(Nc2nc(N)c(C(=O)c3c(F)cccc3F)s2)CC1`, 62%. In the case of `COC1CCC(C(=O)N2CCC(Nc3nc(N)c(C(=O)c4c(F)cccc4F)s3)CC2)CC1` (stereo not given) it was 54%. As for `COC(=O)CCCCC(=O)N1CCC(Nc2nc(N)c(C(=O)c3c(F)cccc3F)s2)CC1`, the inhibition was -5%.

With `CCOC(=O)CCCC(=O)N1CCC(Nc2nc(N)c(C(=O)c3c(F)cccc3F)s2)CC1`, the inhibition was -6%. In the case of `CCSCC(=O)N1CCC(Nc2nc(N)c(C(=O)c3c(F)cccc3F)s2)CC1` it was 63%; in that of `Nc1nc(NC2CCN(C(=O)c3csc([N+](=O)[O-])c3)CC2)sc1C(=O)c1c(F)cccc1F`, 48%. In the case of `Nc1nc(NC2CCN(C(=O)CCCCCc3ccccc3)CC2)sc1C(=O)c1c(F)cccc1F` it was 12%; in that of `COc1ccccc1C(O)C(=O)N1CCC(Nc2nc(N)c(C(=O)c3c(F)cccc3F)s2)CC1` (stereo not given), 27%.

Consider `CC(C)c1cc(C(C)C)c(S(=O)(=O)N2CCC(Nc3nc(N)c(C(=O)c4c(F)cccc4F)s3)CC2)c(C(C)C)c1`, for which the inhibition is -17%. For `Nc1nc(NC2CCN(C(=O)c3ccnc4ccccc34)CC2)sc1C(=O)c1c(F)cccc1F` the value was 10%; for `Cc1cc(C)c(/C=C/C(=O)N2CCC(Nc3nc(N)c(C(=O)c4c(F)cccc4F)s3)CC2)cc1C`, 76%.

Turning to `CC1CCCCC1C(=O)N1CCC(Nc2nc(N)c(C(=O)c3c(F)cccc3F)s2)CC1` (stereo not given), the inhibition is 43%. In the case of `CCOc1cccc(CC(=O)N2CCC(Nc3nc(N)c(C(=O)c4c(F)cccc4F)s3)CC2)c1` it was 77%. In the case of `Nc1nc(NC2CCN(C(=O)c3ccco3)CC2)sc1C(=O)c1c(F)cccc1F` it was 49%; in that of `Nc1nc(NC2CCN(C(=O)COc3cc(Cl)c(Cl)cc3Cl)CC2)sc1C(=O)c1c(F)cccc1F`, -10%; in that of `CC1(CCC(=O)N2CCC(Nc3nc(N)c(C(=O)c4c(F)cccc4F)s3)CC2)SCCS1`, 78%. Turning to `Nc1nc(NC2CCN(C(=O)/C=C/c3ccccc3)CC2)sc1C(=O)c1c(F)cccc1F`, the inhibition was 47%.

For `CC(C)(C(=O)N1CCC(Nc2nc(N)c(C(=O)c3c(F)cccc3F)s2)CC1)c1ccccc1`, the inhibition turned out to be 33%. For the molecule `CCOC(=O)C(=O)N1CCC(Nc2nc(N)c(C(=O)c3c(F)cccc3F)s2)CC1`, the inhibition is -13%.

In the case of `Cc1ccc(/C=C/C(=O)N2CCC(Nc3nc(N)c(C(=O)c4c(F)cccc4F)s3)CC2)c(C)c1`, the inhibition is 31%. In the case of `Nc1nc(NC2CCN(C(=O)c3ccc4c(c3)CCO4)CC2)sc1C(=O)c1c(F)cccc1F` it was 83%; in that of `CC1CC1C(=O)N1CCC(Nc2nc(N)c(C(=O)c3c(F)cccc3F)s2)CC1` (stereo not given), -10%. For `Nc1nc(NC2CCN(C(=O)c3cccs3)CC2)sc1C(=O)c1c(F)cccc1F` the value was 80%; for `Cc1ccc2[nH]c(C(=O)N3CCC(Nc4nc(N)c(C(=O)c5c(F)cccc5F)s4)CC3)cc2c1`, 54%.

With `Nc1nc(NC2CCN(C(=O)CCCc3ccccc3)CC2)sc1C(=O)c1c(F)cccc1F`, the inhibition was 38%. On to `Nc1nc(NC2CCN(C(=O)[C@H](O)Cc3ccccc3)CC2)sc1C(=O)c1c(F)cccc1F`, for which the inhibition was 42%. For `CC(Oc1ccccc1)C(=O)N1CCC(Nc2nc(N)c(C(=O)c3c(F)cccc3F)s2)CC1` (stereo not given) the value was -15%; for `COc1ccc(C(=O)N2CCC(Nc3nc(N)c(C(=O)c4c(F)cccc4F)s3)CC2)cc1F`, 72%; for `COc1cscc1C(=O)N1CCC(Nc2nc(N)c(C(=O)c3c(F)cccc3F)s2)CC1`, 58%.

Regarding `Cc1ccc(C2(C(=O)N3CCC(Nc4nc(N)c(C(=O)c5c(F)cccc5F)s4)CC3)CC2)cc1`, the inhibition was determined as 41%. For `CCC(C)(C)C(=O)N1CCC(Nc2nc(N)c(C(=O)c3c(F)cccc3F)s2)CC1` the value was 32%; for `Nc1nc(NC2CCN(C(=O)c3cnc4ccccc4c3)CC2)sc1C(=O)c1c(F)cccc1F`, 27%; for `Nc1nc(NC2CCN(C(=O)Cc3cc(F)cc(F)c3F)CC2)sc1C(=O)c1c(F)cccc1F`, 44%. For `COc1cc(C(=O)N2CCC(Nc3nc(N)c(C(=O)c4c(F)cccc4F)s3)CC2)cc(OC)c1C` the value was 58%; for `C=CCCC(=O)N1CCC(Nc2nc(N)c(C(=O)c3c(F)cccc3F)s2)CC1`, 68%; for `Nc1nc(NC2CCN(C(=O)CCc3ccc(O)cc3)CC2)sc1C(=O)c1c(F)cccc1F`, 13%. As for `Nc1nc(NC2CCN(C(=O)Cc3cc(F)c(F)c(F)c3)CC2)sc1C(=O)c1c(F)cccc1F`, the inhibition amounted to 57%.

As for `CC(C)(O)CC(=O)N1CCC(Nc2nc(N)c(C(=O)c3c(F)cccc3F)s2)CC1`, the inhibition came to 51%. In the case of `CSCCC(O)C(=O)N1CCC(Nc2nc(N)c(C(=O)c3c(F)cccc3F)s2)CC1` (stereo not given) it was 65%; in that of `Nc1nc(NC2CCN(C(=O)COc3cccc(Cl)c3)CC2)sc1C(=O)c1c(F)cccc1F`, 67%.

Take `CN(C)C(=O)CCC(=O)N1CCC(Nc2nc(N)c(C(=O)c3c(F)cccc3F)s2)CC1`: the inhibition worked out at 49%. For `CC(C)=CC(=O)N1CCC(Nc2nc(N)c(C(=O)c3c(F)cccc3F)s2)CC1` the value was -19%; for `Nc1nc(NC2CCN(C(=O)/C=C/c3cc(O)ccc3O)CC2)sc1C(=O)c1c(F)cccc1F`, 80%. Take `C/C=C/CC(=O)N1CCC(Nc2nc(N)c(C(=O)c3c(F)cccc3F)s2)CC1`: the inhibition was 62%. Take `Nc1nc(NC2CCN(C(=O)c3cc4cc(F)ccc4[nH]3)CC2)sc1C(=O)c1c(F)cccc1F`: the inhibition was determined as 36%. For `CC(=O)Nc1cccc(C(=O)N2CCC(Nc3nc(N)c(C(=O)c4c(F)cccc4F)s3)CC2)c1` the value was 69%; for `CN(CC(=O)N1CCC(Nc2nc(N)c(C(=O)c3c(F)cccc3F)s2)CC1)C(=O)OC(C)(C)C`, 12%. In the case of `CN(C)c1ccc(N=Nc2ccc(S(=O)(=O)N3CCC(Nc4nc(N)c(C(=O)c5c(F)cccc5F)s4)CC3)cc2)cc1` it was -20%; in that of `Nc1nc(NC2CCN(C(=O)C3CCc4ccccc4O3)CC2)sc1C(=O)c1c(F)cccc1F` (stereo not given), 6%. Consider `Cc1cc(Cl)ccc1C(=O)N1CCC(Nc2nc(N)c(C(=O)c3c(F)cccc3F)s2)CC1`, for which the inhibition was 45%. In the case of `Nc1nc(NC2CCN(C(=O)Cc3ccccc3)CC2)sc1C(=O)c1c(F)cccc1F` it was 66%; in that of `Cc1cnc(C(=O)N2CCC(Nc3nc(N)c(C(=O)c4c(F)cccc4F)s3)CC2)cn1`, 72%; in that of `CC(C)C[C@H](O)C(=O)N1CCC(Nc2nc(N)c(C(=O)c3c(F)cccc3F)s2)CC1`, 70%. In the case of `CCOc1ccc(/C=C/C(=O)N2CCC(Nc3nc(N)c(C(=O)c4c(F)cccc4F)s3)CC2)cc1`, the inhibition was 34%. In the case of `Nc1nc(NC2CCN(S(=O)(=O)c3ccc(Sc4ccncc4)cc3)CC2)sc1C(=O)c1c(F)cccc1F` it was -25%.

Consider `Nc1nc(NC2CCN(C(=O)c3cnc4ccccc4n3)CC2)sc1C(=O)c1c(F)cccc1F`, for which the inhibition is 61%.

As for `C[C@@H](C(=O)N1CCC(Nc2nc(N)c(C(=O)c3c(F)cccc3F)s2)CC1)c1ccccc1`, the inhibition came out at 21%. In the case of `CN1CC(C(=O)N2CCC(Nc3nc(N)c(C(=O)c4c(F)cccc4F)s3)CC2)CC1=O` (stereo not given) it was 41%; in that of `CN(C)N=Nc1ccccc1C(=O)N1CCC(Nc2nc(N)c(C(=O)c3c(F)cccc3F)s2)CC1`, 43%; in that of `CCC[C@H]1CC[C@H](C(=O)N2CCC(Nc3nc(N)c(C(=O)c4c(F)cccc4F)s3)CC2)CC1`, 42%.

For the origin of these results see the Kinase Knowledgebase extract (Sharma et al. 2016).
